Results taken from ChEMBL document CHEMBL1141299, “Hologram QSAR model for the prediction of human oral bioavailability” (Bioorg Med Chem, 2007).

Assay: Oral bioavailability in human
Conditions: in vivo

Structure (SMILES) | bioavailability (F) [%] | bioavailability [%]
CCOc1nc2cccc(C(=O)O)c2n1Cc1ccc(-c2ccccc2-c2nnn[nH]2)cc1 | 15 | 
COc1ccc(CCN(C)CCCC2(c3ccc(OC)c(OC)c3)S(=O)(=O)CCCS2(=O)=O)cc1OC | 22 | 
CNS(=O)(=O)CCc1ccc2[nH]cc(C3CCN(C)CC3)c2c1 | 67.5 | 
CN1CCC[C@@H]1Cc1c[nH]c2ccc(CCS(=O)(=O)c3ccccc3)cc12 | 62.5 | 
CCCc1nc(C)c2c(=O)[nH]c(-c3cc(S(=O)(=O)N4CCN(CC)CC4)ccc3OCC)nn12 | 15 | 
CCCc1nn(C)c2c(=O)[nH]c(-c3cc(S(=O)(=O)N4CCN(C)CC4)ccc3OCC)nc12 | 40 | 
C[C@H](NC(C)(C)C)C(=O)c1cccc(Cl)c1 |  | 70
COc1cc(N[C@@H](C)CCCN)c2ncccc2c1 | 96 | 
CN1CCN(C(=O)O[C@@H]2c3nccnc3C(=O)N2c2ccc(Cl)cn2)CC1 |  | 80
CCN(CC)CCC[C@H](C)Nc1ccnc2cc(Cl)ccc12 | 80 | 
C[C@@H](N)Cc1cccc(C(F)(F)F)c1 |  | 85
N[C@H](Cc1ccc(N(CCCl)CCCl)cc1)C(=O)O |  | 71
CC(C)COC[C@H](CN(Cc1ccccc1)c1ccccc1)N1CCCC1 | 60 | 
O=C(NC[C@@H]1CCCCN1)c1cc(OCC(F)(F)F)ccc1OCC(F)(F)F | 95 | 
C[C@@H](NC(C)(C)C)C(=O)c1cccc(Cl)c1 |  | 70
C[C@H](N/C(=N/c1ccncc1)NC#N)C(C)(C)C | 57 | 
COc1cc(N[C@H](C)CCCN)c2ncccc2c1 | 96 | 
COc1ccc([C@H](CN(C)C)C2(O)CCCCC2)cc1 |  | 45
CC(C)NC[C@H](O)c1ccc(NS(C)(=O)=O)cc1 | 60 | 
O=C(O)[C@H]1N=C(c2ccccc2)c2cc(Cl)ccc2NC1=O |  | 91
CN1CCN2c3ccccc3Cc3ccccc3[C@H]2C1 | 20 | 
CC(C)NC[C@@H](O)COc1ccc(OCCOCC2CC2)cc1 | 100 | 
C[C@@H](CN1CCN(CCOCCO)CC1)CN1c2ccccc2Sc2ccccc21 | 10 | 
CCN(CC)C(=O)[C@]1(c2ccccc2)C[C@@H]1CN |  | 84

Structure (SMILES) | bioavailability (F) [%] | bioavailability [%]
COc1ccc(CCN(C)CCC[C@@](C#N)(c2ccc(OC)c(OC)c2)C(C)C)cc1OC | 13.5 | 
C[C@@H](N/C(=N/c1ccncc1)NC#N)C(C)(C)C | 57 | 
C[C@H](CN1CCN(CCOCCO)CC1)CN1c2ccccc2Sc2ccccc21 | 10 | 
CO/N=C1\CN(c2nc3c(cc2F)c(=O)c(C(=O)O)cn3C2CC2)C[C@@H]1CN | 71 | 
O=C(O)[C@@H]1N=C(c2ccccc2)c2cc(Cl)ccc2NC1=O |  | 91
CC(C)NC[C@H](O)COc1ccc(OCCOCC2CC2)cc1 | 100 | 
CC1=CC[C@H](C(C)(C)O)C[C@H]1O | 72 | 
CC(C)COC[C@@H](CN(Cc1ccccc1)c1ccccc1)N1CCCC1 | 60 | 
CN1Cc2c(N)cccc2[C@@H](c2ccccc2)C1 | 27 | 
NS(=O)(=O)c1cc([C@@]2(O)NC(=O)c3ccccc32)ccc1Cl |  | 64
CN1Cc2c(N)cccc2[C@H](c2ccccc2)C1 | 27 | 
Nc1nc(N)c2nc(-c3ccccc3)c(N)nc2n1 | 51 | 
N[C@@H](Cc1ccc(N(CCCl)CCCl)cc1)C(=O)O |  | 71
CCOC(=O)C(CCc1ccccc1)N[C@@H](C)C(=O)N1CCC[C@H]1C(=O)O (single isomer, unassigned) | 41 | 
Nc1nc(NC2CC2)c2ncn([C@H]3C=C[C@@H](CO)C3)c2n1 (single isomer, unassigned) [ABACAVIR] | 86 | 
C[C@@H](OC1OCCN(Cc2n[nH]c(=O)[nH]2)C1c1ccc(F)cc1)c1cc(C(F)(F)F)cc(C(F)(F)F)c1 (single isomer, unassigned) [APREPITANT] | 62.5 | 
C=C1/C(=C\C=C2/CCC[C@]3(C)[C@@H](C(C)CCCC(C)(C)O)CC[C@@H]23)C[C@@H](O)C[C@@H]1O (single isomer, unassigned) [CALCITRIOL] | 61 | 
CCCNC1CCc2nc(N)sc2C1 (single isomer, unassigned) [PRAMIPEXOLE] | 90 | 
Cc1ccsc1C(=CCCN1CCCC(C(=O)O)C1)c1sccc1C (single isomer, unassigned) [TIAGABINE] | 90 | 
CC(C)=CCN1CC[C@]2(C)c3cc(O)ccc3C[C@H]1[C@H]2C [(+)-PENTAZOCINE] |  | 18
CCc1cccc2cc([C@H](O)CNC(C)(C)C)oc12 [(R)-BUFURALOL] | 46 | 
CCN(CC)CCC[C@@H](C)Nc1ccnc2cc(Cl)ccc12 [(R)-CHLOROQUINE] | 80 | 
NS(=O)(=O)c1cc([C@]2(O)NC(=O)c3ccccc32)ccc1Cl [(R)-CHLORTHALIDONE] |  | 64
CN(C)CCC[C@]1(c2ccc(F)cc2)OCc2cc(C#N)ccc21 [(R)-CITALOPRAM] |  | 80

Structure (SMILES) | bioavailability (F) [%] | bioavailability [%]
CCN1C[C@H](CCN2CCOCC2)C(c2ccccc2)(c2ccccc2)C1=O [(R)-DOXAPRAM] | 61 | 
CCOC(=O)C1=C(C)NC(C)=C(C(=O)OC)[C@H]1c1cccc(Cl)c1Cl [(R)-FELODIPINE] | 15 | 
COc1c(N2CCN[C@H](C)C2)c(F)cc2c(=O)c(C(=O)O)cn(C3CC3)c12 [(R)-GATIFLOXACIN] |  | 96
CC(C)Cc1ccc([C@@H](C)C(=O)O)cc1 [(R)-IBUPROPHEN] | 80 | 
COC(=O)C1=C(C)NC(C)=C(C(=O)OC(C)C)[C@@H]1c1cccc2nonc12 [(R)-ISRADIPINE] | 19.5 | 
O=C1Nc2ccc(Cl)cc2C(c2ccccc2Cl)=N[C@@H]1O [(R)-LORAZEPAM] |  | 93
CN1C(=O)[C@@H](O)N=C(c2ccccc2Cl)c2cc(Cl)ccc21 [(R)-LORMETAZEPAM] |  | 75
Cc1cc2c(OC[C@H](O)CNC(C)C)cccc2[nH]1 [(R)-MEPINDOLOL] | 82 | 
CC[C@@]1(c2ccccc2)C(=O)NC(=O)N(C)C1=O [(R)-METHYLPHENOBARBITAL] |  | 73
Cc1cccc(C)c1OC[C@@H](C)N [(R)-MEXILETINE] | 87 | 
COc1ccc(OC)c([C@@H](O)CNC(=O)CN)c1 [(R)-MIDODRINE] | 93 | 
CCOC(=O)C1=C(C)NC(C)=C(C(=O)OC)[C@H]1c1cccc([N+](=O)[O-])c1 [(R)-NITRENDIPINE] | 16 | 
Cc1nccn1C[C@H]1CCc2c(c3ccccc3n2C)C1=O [(R)-ONDANSETRON] | 62 | 
O[C@@](CCN1CCCC1)(c1ccccc1)C1CCCCC1 [(R)-PROCYCLIDINE] | 75 | 
CCC(=O)c1ccc2c(c1)N(C[C@@H](C)N(C)C)c1ccccc1S2 [(R)-PROPIOMAZINE] | 33 | 
C[C@@H](O)Cn1cnc2c1c(=O)n(C)c(=O)n2C [(R)-PROXYPHYLLINE] | 100 | 
C[C@@H](C(=O)O)c1ccc(C(=O)c2cccs2)cc1 [(R)-SUPROFEN] | 92 | 
Cc1cccc(C)c1NC(=O)[C@@H](C)N [(R)-TOCAINIDE] | 89 | 
Cc1cccc(OC[C@H](O)CNC(C)C)c1 [(R)-TOLIPROLOL] | 90 | 
CC(C)[C@H](N)C(=O)OC[C@@H](CO)OCn1cnc2c(=O)nc(N)[nH]c21 [(R)-VALGANCICLOVIR] | 59.4 | 
CC(C)(C)NC[C@@H](O)c1ccc(O)c(CO)c1 [(S)-ALBUTEROL] | 71 | 
CCc1cccc2cc([C@@H](O)CNC(C)(C)C)oc12 [(S)-BUFURALOL] | 46 | 
CC(C)N(CC[C@](C(N)=O)(c1ccccc1)c1ccccn1)C(C)C [(S)-DISOPYRAMIDE] |  | 83
CCN1C[C@@H](CCN2CCOCC2)C(c2ccccc2)(c2ccccc2)C1=O [(S)-DOXAPRAM] | 61 | 

Structure (SMILES) | bioavailability (F) [%] | bioavailability [%]
CCOC(=O)C1=C(C)NC(C)=C(C(=O)OC)[C@@H]1c1cccc(Cl)c1Cl [(S)-FELODIPINE] | 15 | 
COc1c(N2CCN[C@@H](C)C2)c(F)cc2c(=O)c(C(=O)O)cn(C3CC3)c12 [(S)-GATIFLOXACIN] |  | 96
COC(=O)C1=C(C)NC(C)=C(C(=O)OC(C)C)[C@H]1c1cccc2nonc12 [(S)-ISRADIPINE] | 19.5 | 
O=C1Nc2ccc(Cl)cc2C(c2ccccc2Cl)=N[C@H]1O [(S)-LORAZEPAM] |  | 93
CN1C(=O)[C@H](O)N=C(c2ccccc2Cl)c2cc(Cl)ccc21 [(S)-LORMETAZEPAM] |  | 75
Cc1cc2c(OC[C@@H](O)CNC(C)C)cccc2[nH]1 [(S)-MEPINDOLOL] | 82 | 
CC[C@]1(c2ccccc2)C(=O)NC(=O)N(C)C1=O [(S)-METHYLPHENOBARBITAL] |  | 73
Cc1cccc(C)c1OC[C@H](C)N [(S)-MEXILETINE] | 87 | 
COc1ccc(OC)c([C@H](O)CNC(=O)CN)c1 [(S)-MIDODRINE] | 93 | 
CC(C)[C@H]1CC[C@H](C(=O)N[C@@H](Cc2ccccc2)C(=O)O)CC1 [(S)-NATEGLINIDE] | 73 | 
CCOC(=O)C1=C(C)NC(C)=C(C(=O)OC)[C@@H]1c1cccc([N+](=O)[O-])c1 [(S)-NITRENDIPINE] | 16 | 
Cc1nccn1C[C@@H]1CCc2c(c3ccccc3n2C)C1=O [(S)-ONDANSETRON] | 62 | 
O[C@](CCN1CCCC1)(c1ccccc1)C1CCCCC1 [(S)-PROCYCLIDINE] | 75 | 
C[C@@H](CN1c2ccccc2Sc2ccccc21)N(C)C [(S)-PROMETHAZINE] | 25 | 
C[C@H](O)Cn1cnc2c1c(=O)n(C)c(=O)n2C [(S)-PROXYPHYLLINE] | 100 | 
C[C@H](C(=O)O)c1ccc(C(=O)c2cccs2)cc1 [(S)-SUPROFEN] | 92 | 
Cc1cccc(OC[C@@H](O)CNC(C)C)c1 [(S)-TOLIPROLOL] | 90 | 
CC(C)[C@H](N)C(=O)OC[C@H](CO)OCn1cnc2c(=O)nc(N)[nH]c21 [(S)-VALGANCICLOVIR] | 59.4 | 
COc1ccc([C@@H](CN(C)C)C2(O)CCCCC2)cc1 [(S)-VENLAFAXINE] |  | 45
CC(=O)Nc1ccc(O)cc1 [ACETAMINOPHEN] | 88 | 
CN(C)CCc1c[nH]c2ccc(CS(=O)(=O)N3CCCC3)cc12 [ALMOTRIPTAN] | 70 | 
